The record followed here is ChEMBL document CHEMBL3217521, “Analogues of the HIV-Tat peptide containing N-modified arginines as potent inhibitors of protein arginine N-methyltransferases” (Medchemcomm, 2012).

Activity calls are given as the source filed them. No cut-off for these calls is given here. Starred links: 1 amine or outer side, 2 acyl side, 3 side chain; linkers in the order of their positions; H or OH if unused. Non-standard residues stand in square brackets, D forms with d. Residues, ends and D or L forms follow the SMILES beside them. X2 = N/C(=N\CC(F)(F)F)NCCC[C@H](N[*:1])C(=O)[*:2]; X3 = N/C(=N\Cc1ccccc1)NCCC[C@H](N[*:1])C(=O)[*:2]; X4 = NC(NCCC[C@H](N[*:1])C(=O)[*:2])=[N+]1CCCC1; X5 = N/C(=N\C1CC1)NCCC[C@H](N[*:1])C(=O)[*:2]; X1 = N/C(=N\O)NCCC[C@H](N[*:1])C(=O)[*:2]

Test [1] concerns the target T1, Protein arginine N-methyltransferase 6 (Homo sapiens, UniProt Q96LA8). Briefly: Inhibition of PRMT6 (unknown origin) using AdoMet by Michaelis-Menten equation analysis.
Target sequence in this assay (Q96LA8 whole entry): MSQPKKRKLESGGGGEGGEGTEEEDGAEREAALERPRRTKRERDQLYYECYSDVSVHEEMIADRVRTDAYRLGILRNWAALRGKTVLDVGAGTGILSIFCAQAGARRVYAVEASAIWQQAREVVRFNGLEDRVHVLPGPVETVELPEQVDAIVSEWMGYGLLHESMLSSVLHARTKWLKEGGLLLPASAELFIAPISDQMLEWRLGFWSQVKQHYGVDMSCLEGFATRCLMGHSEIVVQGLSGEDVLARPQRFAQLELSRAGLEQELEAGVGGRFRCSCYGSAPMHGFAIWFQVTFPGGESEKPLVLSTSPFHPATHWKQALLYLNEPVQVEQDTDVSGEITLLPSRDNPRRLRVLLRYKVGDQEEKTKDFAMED
The target of test [2] is T2, Histone-arginine methyltransferase CARM1 (Homo sapiens) (UniProt Q86X55).
T2 sequence (whole entry): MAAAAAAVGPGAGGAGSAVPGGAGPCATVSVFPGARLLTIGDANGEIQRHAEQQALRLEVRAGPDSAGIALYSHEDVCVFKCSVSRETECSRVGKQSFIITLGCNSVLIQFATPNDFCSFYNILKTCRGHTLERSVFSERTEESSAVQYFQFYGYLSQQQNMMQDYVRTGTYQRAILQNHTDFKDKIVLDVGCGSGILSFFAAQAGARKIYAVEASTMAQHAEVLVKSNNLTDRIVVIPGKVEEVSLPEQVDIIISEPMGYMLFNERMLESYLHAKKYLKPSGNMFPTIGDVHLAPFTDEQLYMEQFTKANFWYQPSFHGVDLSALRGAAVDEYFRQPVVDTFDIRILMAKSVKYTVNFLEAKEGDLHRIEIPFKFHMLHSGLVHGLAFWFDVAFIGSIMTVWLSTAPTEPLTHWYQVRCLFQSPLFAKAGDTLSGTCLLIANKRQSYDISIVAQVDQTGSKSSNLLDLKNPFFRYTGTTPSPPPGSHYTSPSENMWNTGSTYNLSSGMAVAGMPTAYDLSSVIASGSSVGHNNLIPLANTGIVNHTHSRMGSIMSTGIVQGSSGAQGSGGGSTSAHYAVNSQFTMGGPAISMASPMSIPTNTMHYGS
Put plainly: Activity at PRMT4 (unknown origin) using [methyl-14C]AdoMet at 0.25 to 200 uM after 60 to 120 mins by tricine gel electrophoresis.

Test [3] addresses T3, Protein arginine N-methyltransferase 1 (Homo sapiens, UniProt Q99873). Put plainly: Activity at PRMT1 (unknown origin) assessed as methylation of substituted arginines by LC-MS/MS analysis.
Target sequence in this assay (Q99873 whole entry, looked up): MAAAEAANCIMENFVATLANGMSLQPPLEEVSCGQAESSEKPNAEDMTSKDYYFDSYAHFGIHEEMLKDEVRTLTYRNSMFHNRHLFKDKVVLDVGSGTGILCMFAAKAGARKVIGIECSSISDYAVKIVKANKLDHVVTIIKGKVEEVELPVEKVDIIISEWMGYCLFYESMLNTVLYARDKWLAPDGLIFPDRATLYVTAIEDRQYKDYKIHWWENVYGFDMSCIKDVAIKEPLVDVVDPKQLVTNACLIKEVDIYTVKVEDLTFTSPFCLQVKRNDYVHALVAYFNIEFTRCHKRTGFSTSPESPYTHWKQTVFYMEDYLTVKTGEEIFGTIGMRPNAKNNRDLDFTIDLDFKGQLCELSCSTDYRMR
Test [4] concerns the target T3, Protein arginine N-methyltransferase 1. Briefly: Activity at PRMT1 (unknown origin) using [methyl-14C]AdoMet at 0.25 to 200 uM after 60 to 120 mins by tricine gel electrophoresis.
Target sequence in this assay (Q99873 whole entry, looked up): as above
Test [5] has as its target T1, Protein arginine N-methyltransferase 6. Briefly: Activity at PRMT6 (unknown origin) using [methyl-14C]AdoMet at 0.25 to 200 uM after 60 to 120 mins by tricine gel electrophoresis.
Target sequence in this assay (Q96LA8 whole entry, looked up): as the sequence (Q96LA8 whole entry) above
Test [6] has the same target. Briefly: Activity at PRMT6 (unknown origin) assessed as methylation of substituted arginines by LC-MS/MS analysis.
Target sequence in this assay (Q96LA8 whole entry, looked up): as the sequence (Q96LA8 whole entry) above
Test [7] concerns the target T3, Protein arginine N-methyltransferase 1. Put plainly: Inhibition of PRMT1 (unknown origin) using AdoMet by Michaelis-Menten equation analysis.
Target sequence in this assay (Q99873 whole entry): as the sequence (Q99873 whole entry, looked up) above
Test [8] is filed under the species Homo sapiens. Briefly: Ratio of PRMT4 (unknown origin) to PRMT6 (unknown origin).
In test [9] the target is T3, Protein arginine N-methyltransferase 1. Put plainly: Activity at PRMT1 (unknown origin) using AdoMet assessed as formation of MMA and aDMA at 0.25 to 200 uM after 60 to 120 mins by LC-MS/MS analysis.
Target sequence in this assay (Q99873 whole entry, looked up): as above
For test [10], the target named is T1, Protein arginine N-methyltransferase 6. Put plainly: Activity at PRMT6 (unknown origin) using AdoMet assessed as formation of MMA and aDMA at 0.25 to 200 uM after 60 to 120 mins by LC-MS/MS analysis.
Target sequence in this assay (Q96LA8 whole entry, looked up): as the sequence (Q96LA8 whole entry) above
For test [11], the target named is T2, Histone-arginine methyltransferase CARM1 (Homo sapiens). Put plainly: Activity at PRMT4 (unknown origin) using AdoMet assessed as formation of MMA and aDMA at 0.25 to 200 uM after 60 to 120 mins by LC-MS/MS analysis.
Test [12] is filed under the species Homo sapiens. Briefly: Ratio of PRMT4 (unknown origin) to PRMT1 (unknown origin).
For test [13], the target named is T3, Protein arginine N-methyltransferase 1. Put plainly: Inhibition of 50 to 800 nM of PRMT1 (unknown origin) up to 200 uM.
Target sequence in this assay (Q99873 whole entry, looked up): as the sequence (Q99873 whole entry, looked up) above
Test [14] deals with T1, Protein arginine N-methyltransferase 6. Put plainly: Activity at 100 to 400 nM of PRMT6 (unknown origin) assessed as increase of Vmax up to 200 uM relative to control.
Target sequence in this assay (Q96LA8 whole entry, looked up): as the sequence (Q96LA8 whole entry) above
In test [15] the target is T3, Protein arginine N-methyltransferase 1. Briefly: Activity at 800 nM of PRMT1 (unknown origin) at 100 to 200 uM.
Target sequence in this assay (Q99873 whole entry, looked up): as the sequence (Q99873 whole entry, looked up) above
In test [16] the target is T1, Protein arginine N-methyltransferase 6. Briefly: Activity at 50 to 100 nM of PRMT6 (unknown origin) up to 200 uM.
Target sequence in this assay (Q96LA8 whole entry, looked up): as the sequence (Q96LA8 whole entry) above
Test [17] shares this target. Briefly: Activity at 50 to 800 nM of PRMT6 (unknown origin) assessed as increase of Vmax up to 200 uM relative to control.
Target sequence in this assay (Q96LA8 whole entry, looked up): as the sequence (Q96LA8 whole entry) above
For test [18], the target named is T3, Protein arginine N-methyltransferase 1. Briefly: Activity at 50 to 800 nM of PRMT1 (unknown origin) up to 200 uM.
Target sequence in this assay (Q99873 whole entry, looked up): as the sequence (Q99873 whole entry, looked up) above
Test [19] has as its target T1, Protein arginine N-methyltransferase 6. Put plainly: Inhibition of 50 to 100 nM of PRMT6 (unknown origin) up to 200 uM.
Test [20] has the same target. Put plainly: Activity at 50 to 800 nM of PRMT6 (unknown origin) assessed as increase of Km up to 200 uM relative to control.
In test [21] the target is T3, Protein arginine N-methyltransferase 1. Put plainly: Activity at 50 to 100 nM of PRMT1 (unknown origin) up to 200 uM.
The target in test [22] is T1, Protein arginine N-methyltransferase 6. Briefly: Activity at 400 nM of PRMT6 (unknown origin) using histone H3 tail peptide.
The target of test [23] is T3, Protein arginine N-methyltransferase 1. Put plainly: Inhibition of 50 nM of PRMT1 (unknown origin) up to 200 uM.
The target in test [24] is T1, Protein arginine N-methyltransferase 6. Put plainly: Activity at PRMT6 (unknown origin) at 100 uM using => 5 uM of AdoMet.
For test [25], the target named is T3, Protein arginine N-methyltransferase 1. Briefly: Activity at PRMT1 (unknown origin) at 100 uM using => 5 uM of AdoMet.

For the compound `N=C(N)NCCC[C@H](NC(=O)CN)C(=O)N[C@@H](CCCCN)C(=O)N[C@@H](CCCCN)C(=O)N[C@@H](CCCNC(N)=[N+]1CCCC1)C(=O)N[C@@H](CCCNC(=N)N)C(=O)N[C@@H](CCC(N)=O)C(=O)N[C@@H](CCCNC(=N)N)C(=O)N[C@@H](CCCNC(=N)N)C(=O)N[C@@H](CCCNC(=N)N)C(=O)N1CCC[C@H]1C(=O)N1CCC[C@H]1C(=O)N[C@@H](CCC(N)=O)C(=O)O` (H-GRKK[X4]RQRRRPPQ-OH), the figures for the Ki in test [1] and in test [7] were 77.3 µM and 7.62 µM, respectively. The outcome in [2], in test [4] and in test [5] was Active. Further, the outcome in test [3] and in test [6] was inactive.

As for `CC/N=C(\N)NCCC[C@H](NC(=O)[C@H](CCCCN)NC(=O)[C@H](CCCCN)NC(=O)[C@H](CCCNC(=N)N)NC(=O)CN)C(=O)N[C@@H](CCCNC(=N)N)C(=O)N[C@@H](CCC(N)=O)C(=O)N[C@@H](CCCNC(=N)N)C(=O)N[C@@H](CCCNC(=N)N)C(=O)N[C@@H](CCCNC(=N)N)C(=O)N1CCC[C@H]1C(=O)N1CCC[C@H]1C(=O)N[C@@H](CCC(N)=O)C(=O)O`, the inhibition constant Ki is 31.3 µM in [1] and 4.29 µM in test [7]. Further, the Selectivity ratio in the test filed under Homo sapiens [8] and in the test listed under Homo sapiens [12] was 10 in each case. In addition, the result in test [9], in test [10], in test [11], in test [2], in [4] and in [5] was Active. For the same compound, the outcome in test [3] and in test [6] was inactive.

Take `N=C(N)NCCC[C@H](NC(=O)CN)C(=O)N[C@@H](CCCCN)C(=O)N[C@@H](CCCCN)C(=O)N[C@@H](CCCNC(=N)N)C(=O)N[C@@H](CCCNC(=N)N)C(=O)N[C@@H](CCC(N)=O)C(=O)N[C@@H](CCCNC(=N)N)C(=O)N[C@@H](CCCNC(=N)N)C(=O)N[C@@H](CCCNC(=N)N)C(=O)N1CCC[C@H]1C(=O)N1CCC[C@H]1C(=O)N[C@@H](CCC(N)=O)C(=O)O`: the figures for the Ki in [1] and in test [7] were 35.1 µM and 4.79 µM, respectively. Moreover, the inhibition result in test [13], in [19] and in test [23] was “inactive” each time. Further, the result in test [14], in test [9], in [15], in test [16], in [10] and in [11] was Active. The result in test [2], in test [18], in [4], in test [5], in test [21] and in test [22] was Active. Also, the Selectivity ratio in the test filed under Homo sapiens [8] and in the test listed under Homo sapiens [12] was 10 each time. Also, the fold change (FC) in [17] is 9; in test [20], 87.

Regarding `N=C(N)NCCC[C@H](NC(=O)CN)C(=O)N[C@@H](CCCCN)C(=O)N[C@@H](CCCCN)C(=O)N[C@@H](CCCN/C(N)=N/O)C(=O)N[C@@H](CCCNC(=N)N)C(=O)N[C@@H](CCC(N)=O)C(=O)N[C@@H](CCCNC(=N)N)C(=O)N[C@@H](CCCNC(=N)N)C(=O)N[C@@H](CCCNC(=N)N)C(=O)N1CCC[C@H]1C(=O)N1CCC[C@H]1C(=O)N[C@@H](CCC(N)=O)C(=O)O` (H-GRKK[X1]RQRRRPPQ-OH), the inhibitory constant (Ki) in test [1] was 63 µM; in [7] it was 2.68 µM. Besides, the Selectivity ratio in the test filed under Homo sapiens [8] and in the test filed under Homo sapiens [12] was 10 throughout. In addition, the result in [9], in test [10], in test [11], in [2], in test [4] and in test [5] was Active.

In the case of `N=C(N)NCCC[C@H](NC(=O)CN)C(=O)N[C@@H](CCCCN)C(=O)N[C@@H](CCCCN)C(=O)N[C@@H](CCCN/C(N)=N/Cc1ccccc1)C(=O)N[C@@H](CCCNC(=N)N)C(=O)N[C@@H](CCC(N)=O)C(=O)N[C@@H](CCCNC(=N)N)C(=O)N[C@@H](CCCNC(=N)N)C(=O)N[C@@H](CCCNC(=N)N)C(=O)N1CCC[C@H]1C(=O)N1CCC[C@H]1C(=O)N[C@@H](CCC(N)=O)C(=O)O` (H-GRKK[X3]RQRRRPPQ-OH), the inhibition constant (Ki) was found to be 19.9 µM in test [1] and 2.68 µM in test [7]. For the same compound, the result in test [2], in [4] and in test [5] was Active. Moreover, the outcome in test [3] and in [6] was inactive.

Consider `N=C(N)NCCC[C@H](NC(=O)CN)C(=O)N[C@@H](CCCCN)C(=O)N[C@@H](CCCCN)C(=O)N[C@@H](CCCN/C(N)=N/C1CC1)C(=O)N[C@@H](CCCNC(=N)N)C(=O)N[C@@H](CCC(N)=O)C(=O)N[C@@H](CCCNC(=N)N)C(=O)N[C@@H](CCCNC(=N)N)C(=O)N[C@@H](CCCNC(=N)N)C(=O)N1CCC[C@H]1C(=O)N1CCC[C@H]1C(=O)N[C@@H](CCC(N)=O)C(=O)O` (H-GRKK[X5]RQRRRPPQ-OH), for which the Ki is above 100 µM in test [1] and 2.9 µM in [7]. Also, the result in test [2], in [4] and in test [5] was Active.

On to H-GRKKARQRRRPPQ-OH, for which the results for the Ki in test [1] and in [7] were 35.9 µM and 7.6 µM, respectively. Also, the result in test [24], in [9], in test [10], in test [11], in test [25] and in test [2] was Active. Further, the outcome in test [4] and in [5] was Active. Besides, the Selectivity ratio in the test listed under Homo sapiens [8] and in the test listed under Homo sapiens [12] was 10 throughout. Further, the outcome in test [3] and in [6] was inactive.

With `N=C(N)NCCC[C@H](NC(=O)CN)C(=O)N[C@@H](CCCCN)C(=O)N[C@@H](CCCCN)C(=O)N[C@@H](CCCN/C(N)=N/CC(F)(F)F)C(=O)N[C@@H](CCCNC(=N)N)C(=O)N[C@@H](CCC(N)=O)C(=O)N[C@@H](CCCNC(=N)N)C(=O)N[C@@H](CCCNC(=N)N)C(=O)N[C@@H](CCCNC(=N)N)C(=O)N1CCC[C@H]1C(=O)N1CCC[C@H]1C(=O)N[C@@H](CCC(N)=O)C(=O)O` (H-GRKK[X2]RQRRRPPQ-OH), the inhibition constant Ki in [1] came out at 43.3 µM; in test [7] it was 2.98 µM. Moreover, the outcome in [2], in test [4] and in test [5] was Active. Further, the outcome in [3] and in test [6] was inactive.
